Measured values published in patent US20150141411A1, “SUBSTITUTED 3,4-DIHYDRO-2H-PYRIDO[1,2-A]PYRAZINE-1,6-DIONE DERIVATIVES USEFUL FOR THE TREATMENT OF (INTER ALIA) ALZHEIMER'S DISEASE” (Janssen Pharmaceuticals, Inc., priority 2012, published 2015).

Assays:
Aβ42 = experiment: In vivo efficacy: brain soluble Aβ42 in non-transgenic rodents (ELISA); conditions: Mus musculus, dose 30 mg/kg oral dosing, brain soluble fraction, animals sacrificed after 4 h, untreated animals (Ctrl) set at 100, read-out: Aβ42 (% vs Ctrl)_Mean
Text: To determine whether acute administration of an Aβ42 lowering agent would reduce Aβ42 levels in vivo, non-transgenic rodents, e.g. mice or rats were used. Animals treated with the Aβ42 lowering agent were examined and compared to those untreated or treated with vehicle and brain levels of soluble Aβ42 and total Aβ were quantitated by standard techniques, for example, using ELISA. Treatment periods varied from hours (h) to days and were adjusted based on the results of the Aβ42 lowering once a time course of onset of effect could be established.
A typical protocol for measuring Aβ42 lowering in vivo is shown but it is only one of many variations that could be used to optimize the levels of detectable Aβ. For example, Aβ42 lowering compounds were formulated in 20% of Captisol® (a sulfobutyl ether of β-cyclodextrin) in water or 20% hydroxypropyl β cyclodextrin. The Aβ42 lowering agents were administered as a single oral dose or by any acceptable route of administration to overnight fasted animals. After 4 h, the animals were sacrificed and Aβ42 levels were analysed.
Blood was collected by decapitation and exsanguinations in EDTA-treated collection tubes. Blood was centrifuged at 1900 g for 10 minutes (min) at 4° C. and the plasma recovered and flash frozen for later analysis. The brain was removed from the cranium and hindbrain. The cerebellum was removed and the left and right hemisphere were separated. The left hemisphere was stored at −18° C. for quantitative analysis of test compound levels. The right hemisphere was rinsed with phosphate-buffered saline (PBS) buffer and immediately frozen on dry ice and stored at −80° C. until homogenization for biochemical assays.
Mouse brains from non-transgenic animals were resuspended in 8 volumes of 0.4% DEA (diethylamine)/50 mM NaCl containing protease inhibitors (Roche-11873580001 or 04693159001) per gram of tissue, e.g. for 0.158 g brain, add 1.264 ml of 0.4% DEA. All samples were homogenized in the FastPrep-24 system (MP Biomedicals) using lysing matrix D (MPBio #6913-100) at 6 m/s for 20 seconds. Homogenates were centrifuged at 221.300×g for 50 min. The resulting high speed supernatants were then transferred to fresh eppendorf tubes. Nine parts of supernatant were neutralized with 1 part 0.5 M Tris-HCl pH 6.8 and used to quantify Aβtotal and Aβ42.
To quantify the amount of Aβtotal and Aβ42 in the soluble fraction of the brain homogenates, Enzyme-Linked-Immunosorbent-Assays were used. Briefly, the standards (a dilution of synthetic Aβ1-40 and Aβ1-42, Bachem) were prepared in 1.5 ml Eppendorf tube in Ultraculture, with final concentrations ranging from 10000 to 0.3 pg/ml. The samples and standards were co-incubated with HRPO-labelled N-terminal antibody for Aβ42 detection and with the biotinylated mid-domain antibody 4G8 for Aβtotal detection. 50 μl of conjugate/sample or conjugate/standards mixtures were then added to the antibody-coated plate (the capture antibodies selectively recognize the C-terminal end of Aβ42, antibody JRF/cAβ42/26, for Aβ42 detection and the N-terminus of Aβ, antibody JRF/rAβ/2, for Aβtotal detection). The plate was allowed to incubate overnight at 4° C. in order to allow formation of the antibody-amyloid complex. Following this incubation and subsequent wash steps the ELISA for Aβ42 quantification was finished by addition of Quanta Blu fluorogenic peroxidase substrate according to the manufacturer's instructions (Pierce Corp., Rockford, Ill.). A reading was performed after 10 to 15 min (excitation 320 nm/emission 420 nm).
In this model a Aβ42 lowering compared to untreated animals would be advantageous, in particular a Aβ42 lowering with at least 10%, more in particular a Aβ42 lowering with at least 20%.
The results are shown in Table 4 (dose 30 mg/kg oral dosing) (value for untreated animals as control (Ctrl) was set at 100): […]

melting point | SMILES | response vs control in vivo at 30 mg/kg (Aβ42)
203.8 °C | Cc1cn(-c2ccc3n(c2=O)CCN(C(C)c2cccc(Cl)c2Cl)C3=O)cn1 (single isomer, unassigned) [10a] | 87%
147.3 °C | Cc1cn(-c2ccc3n(c2=O)CC(C)N(C(C)c2cc(C(F)(F)F)cc(C(F)(F)F)c2)C3=O)cn1.Cl (single isomer, unassigned) [compound 111] | 
259 °C | Cc1cn(-c2ccc3n(c2=O)CC(C)N(C(C)c2cc(C(F)(F)F)cc(C(F)(F)F)c2)C3=O)cn1.Cl (single isomer, unassigned) [compound 112] | 
258 °C | Cc1cn(-c2ccc3n(c2=O)CCN(C(C)c2cn(C)c4cc(F)c(Cl)cc24)C3=O)cn1 (single isomer, unassigned) [compound 185] | 
263 °C | Cc1cn(-c2ccc3n(c2=O)CC(C)N(C(C)c2cn(C)c4cc(F)c(Cl)cc24)C3=O)cn1 (single isomer, unassigned) [compound 189] | 
263 °C | Cc1cn(-c2ccc3n(c2=O)CC(C)N(C(C)c2c[nH]c4c(F)cc(Cl)cc24)C3=O)cn1 (single isomer, unassigned) [compound 219] | 
203.6 °C | CCC1Cn2c(ccc(-n3cnc(C)c3)c2=O)C(=O)N1Cc1cc(C(F)(F)F)cc(C(F)(F)F)c1.Cl (centres unmarked) [compound 1] | 61%
185 °C | Cc1cn(-c2ccc3n(c2=O)C[C@@H](C)N(Cc2ccc(Cl)c(Cl)c2)C3=O)cn1 [compound 2] | 82%
176.6 °C | Cc1cn(-c2ccc3n(c2=O)CC(C)N(Cc2cc(C(F)(F)F)cc(C(F)(F)F)c2)C3=O)cn1 (centres unmarked) [compound 3] | 55%
165.6 °C | Cc1cn(-c2ccc3n(c2=O)CCN(Cc2cccc(-c4ccccc4)c2)C3=O)cn1 [compound 5] | 78%
175.4 °C | Cc1cn(-c2ccc3n(c2=O)CC(C)N(Cc2cc(OCC4CC4)cc(C(F)(F)F)c2)C3=O)cn1.Cl (centres unmarked) [compound 6] | 85%
290 °C | CCc1cn(-c2ccc3n(c2=O)CC(C)N(Cc2cc(C(F)(F)F)cc(C(F)(F)F)c2)C3=O)cn1.Cl (centres unmarked) [compound 7] | 73%
186.1 °C | Cc1cn(-c2ccc3n(c2=O)CCN(Cc2ccccc2C)C3=O)cn1 [compound 22] | 106%
 | Cc1cn(-c2ccc3n(c2=O)C[C@@H](C)N(Cc2cccc(C(C)(C)C)c2)C3=O)cn1 [compound 23] | 122%
145.6 °C | Cc1cn(-c2ccc3n(c2=O)C[C@@H](C)N(Cc2ccc(C(F)(F)F)c(C(F)(F)F)c2)C3=O)cn1 [compound 46] | 60%
 | Cc1cn(-c2ccc3n(c2=O)C[C@@H](C)N(CCc2cc(C(F)(F)F)cc(C(F)(F)F)c2)C3=O)cn1 [compound 50] | 88%
167.7 °C | Cc1cc(CN2C(=O)c3ccc(-n4cnc(C)c4)c(=O)n3C[C@H]2C)cc(C(F)(F)F)c1 [compound 59] | 82%
 | Cc1cn(-c2ccc3n(c2=O)C[C@@H](C)N(Cc2ccc(Cl)c(C(F)(F)F)c2)C3=O)cn1 [compound 62] | 68%
180.4 °C | Cc1cn(-c2ccc3n(c2=O)C[C@@H](C)N(Cc2cc(Cl)cc(C(F)(F)F)c2)C3=O)cn1 [compound 63] | 82%
195.1 °C | Cc1cn(-c2ccc3n(c2=O)CCN(Cc2ccc(Cl)c(C(F)(F)F)c2)C3=O)cn1 [compound 65] | 104%
 | Cc1cn(-c2ccc3n(c2=O)C[C@@H](C)N(Cc2cc(N4CCC(C)CC4)ccc2Cl)C3=O)cn1 [compound 80] | 119%
 | Cc1cn(-c2ccc3n(c2=O)C[C@@H](C)N(Cc2cc(N4CCCC4)ccc2Cl)C3=O)cn1 [compound 82] | 78%
 | Cc1cn(-c2ccc3n(c2=O)CCN(Cc2ccc(C)c(N4CCCCC4)c2)C3=O)cn1 [compound 99] | 111%
157.9 °C | C[C@@H]1Cn2c(ccc(-n3cnc(Cl)c3)c2=O)C(=O)N1Cc1cc(C(F)(F)F)cc(C(F)(F)F)c1 [compound 118] | 
198.1 °C | Cc1cn(-c2ccc3n(c2=O)C[C@@H](C)N(Cc2ccc(F)c(F)c2)C3=O)cn1 [compound 133] | 
137.1 °C | Cc1cn(-c2cc(F)c3n(c2=O)C[C@@H](C)N(Cc2cc(C(F)(F)F)cc(C(F)(F)F)c2)C3=O)cn1 [compound 158] | 
